A short description of series [1]: Concentrations in transdermal exudate collected by different formats from sheep, versus serum. Here is the method: (§1) Sodium lauryl sulfate (40%) and either a commercial ultrasound conductive gel (Aquasonic, Parker Lab., NJ 07004, USA) or a 10% ethanol gel (the two gels were alternated in use) are employed. These gels are designated SLS-UG and SLS-EG respectively herein. Collected SLS-UG and SLS-EG are assayed as for blood. Saliva was divided into two samples. The first sample is stored at −20° C. and assayed as for blood. The second sample is assayed at the time of experimentation using the apparatus and immunosensors described above.
Ten of these animals were used to develop the transdermal exudate collection technique. These 10 animals were penned as above, and a catheter inserted into the jugular vein using known techniques in the art. A mixture of sodium lauryl sulfate and either SLS-UG or SLS-EG was positioned onto the shaved area on the back of each animal. […] At the end of the hour, the remaining mix on the back was collected. The entire procedure was repeated three times. This mix was subject to assay (see below) for hormones and glucose content.
On the following day, one of the two gel mixes were rubbed on and, after 10 min, ultrasound (20 kHz, 10 W/cm^2, pulsed 5 s on/5 s off using an ITO Physiotherapy and rehabilitation unit, Tokyo 176-8605, Japan) applied for 1 min directly onto the mix. Ten minutes later, the mix was again collected and measured. This was then repeated with 2 min of the ultrasound application, and on a following day, the entire procedure repeated using the alternative gel mix on the shaved patch on the animal. Times greater than 2 min were not attempted due to potential risk of skin damage. Blood samples were collected at the time of ultrasound application and again at the time when the gel mix was also collected. The entire ultrasound procedure was then repeated on subsequent days with the addition of an application of a 9V electric field either side of the ultrasound head (in contact with skin).
On a separate day, in a further repeat of the above procedure; the collecting head (50) was positioned onto the ultrasound device. The ultrasound device was modified to ensure good coupling for use with the collecting head and delivery of needed parameters to the skin. The output of the device was reset to achieve the same energy and pulse delivery to the skin's surface as when the collecting head was not present, and the ultrasound device had been placed directly in contact with the gels (as described above). Three fluid flow rates into the collection chamber of the head were compared: 150, 300 and 600 μl/min. The effluent fluid was then assayed. On a final day, this was then repeated with the immunosensors positioned in the exit line from the chamber, with immunosensor measurement of the hormones made as has been described above.

The nature of series [2]: Trial of FIG. 1 device: blood levels versus ultrasound-extracted transudate levels. From the text: The device of shown in FIG. 1 has been trialed with four individuals. The device was assembled as set out above and was linked to a testosterone and ethanol detectors comprising a HPLC system and Electrochemical detector and a mass spectroscopy system. […] In turn, each subject placed their forearm on the device. The ultrasound generator was set to produce continuous pulsing, collimating ultrasonic energy at 1 MHz and 0.5 W/cm^2. The surface of delivery at the test site was approximately 5 cm^2. Collections were made from the skin surface of the forearm over a period of one minute. Blood samples were drawn simultaneously and analysed for comparison to the ultrasound samples.

Series [3] can be described thus: Flow rate effect on analyte extraction (electrosonophoresis exudate versus serum). It is filed as in vivo. Particulars: for Sonified off membrane*: membrane sonicated in water bath. Here is the method: Using the methods above for transudate and serum extraction, an experiment was conducted to determine the effect of flow rates through the head on testosterone recovery. Table 5 sets out the results of the experiment.
In a series of experiments (15 measures per flow rate) flow rates were compared for collection of testosterone in exudate from electrosonophoresis compared to that concurrently measured in serum of the subjects.

Series [4] can be described thus: Serum, transdermal and saliva samples from sheep before, during and after exercise. Particulars: for Saliva: 20-min saliva lag; for Exudate: transdermal. Here is the method:
as §1
(§2) Student t tests, ANOVA or Wilcoxon test for paired samples are made as appropriate. Statistical significance is taken at P≦0.05 level. For analysis across the exercise stress, data is grouped into pre, during and post exercise values as actual sample times relative to the exercise for transdermal and blood obtained values. For pre, during and post exercise grouping of saliva samples, a 20-min lag was allowed relative to blood and transdermal values in sheep and a 30-min lag in human subjects.
In the remaining 10 sheep, experimentation took place on three separate days, each 3 days apart. On days of experimentation, animals were penned as above and the jugular vein of the animal was catheterised. Animals were left to rest for 50 min and then a single ultrasound application applied for 1 min as above. […] A series of electrosonophoresis collections were made concurrently with blood collection from the jugular vein, every 5 min for a further 1 h. Saliva samples were collected on every second blood sample (i.e. every 10 min). At completion of this time, a human shepherd, intermittently for 30 min, then ran the animals around a paddock. During this 30 min, each animal was briefly restrained manually and sampled on all three parameters every 10 min (i.e. three samples repeated three times). At the end of this period, animals were repenned and rested for 10 min, and a further saliva collection was made. Following this saliva collection for a further 1-h period, collection as above, prior to exercise, was repeated. In this manner for each animal, in each session, 27 blood and transdermal samples and 16 saliva samples were collected.

Series [5] is described as follows: Patients recovering in intensive care: blood versus ultrasound (US) levels. Type of series: in vivo, human. Particulars: one value per sample.
A short description of series [6]: Salivary cortisol during familiarization period. It is filed as in vivo. Particulars: sheep. Here is the method:
Twenty sheep (Romney cross ewes, 36-44 kg live weights) were farmed together as a flock for 14 days prior to experimentation. On each of these days, they were rounded up, penned, a patch on their backs (approximately 5 cm in diameter) shaved and SLS-UG or SLS-EG applied.
Two minutes later the electrosonophoresis device was placed briefly on this patch (not turned on). At the end of 1 h of penning saliva was collected using a plastic suction bulb positioned manually into the mouth of the sheep. In this manner the sheep were familiarized to the experimental procedure.

Series [7] in a line: Serum, transdermal and saliva samples from human subjects before, during and after exercise. Particulars: for Saliva: 30-min saliva lag. How it is done:
as §1, §2
Ten human volunteers (males aged 19-23, body weights 85-103 kg) were seated at 09:30 h. During the experiment, they were held at a room temperature of 20-22° C. An initial 1 min burst of ultrasound, as for the sheep (above), was made on the volar surface of the forearm, following application of SLS-EG mix. Ten minutes later, transdermal (electrosonophoresis) collection began from this site on this forearm, simultaneous to a venepuncture blood collection being made from the other. A saliva collection was then made, followed by a second, third and fourth saliva collection 20, 30 and 40 min after the blood sample. These measurements were repeated three times over 3 h (i.e. a total of three blood and transdermal samples and 12 saliva samples). In between each sampling series, subjects were allowed to walk around, eat lightly and drink water. Following this collection, the five volunteers exercised at moderate intensities, for 40 min (heart rates maintained in the range of 130-160 bpm) on a rowing machine, stopping briefly at 10, 20 and 30 min to give blood, transdermal and saliva samples. The subjects gave another set of samples at 40 min upon completion of rowing, then warmed down lightly with stretching exercises for a further 10 min and gave a further saliva sample at the end of this time. Two more saliva samples were collected at 60 and 70 min after exercise started. At the end of this time, sampling was repeated as above, prior to exercise, for a further 3 h. The entire procedure was repeated twice a week for 3 weeks (a total of six times). The distance rowed (m) represented the total work rate during the exercise.

The nature of series [8]: Procalcitonin/TNF alpha and IL 6 (measure of bacterial sepsis): serum versus transdermal. It is filed as in vivo.
The mark [9] stands for this setting: sheep, SLS + 10% E + US 1 min + 9 V.
[10] abbreviates: sheep, SLS + 10% E + US 1 min + 9 V + Collection Head.

Where “and” joins values, the source holds several entries; their conditions need not be identical. Equal entries are not always repeated.

As to `C[C@]12CC[C@H]3[C@@H](CCC4=CC(=O)CC[C@@]43C)[C@@H]1CC[C@@H]2O` [Testosterone, testosterone], the Serum in series [1] (sheep, SLS + 10% E) was 0.9 ± 0.4 ng/mL; in series [1] (sheep, SLS + 10% E + US 1 min), 0.9 ± 0.3 ng/mL; in series [1] (setting [9]), 0.7 ± 0.6 ng/mL; in series [1] (setting [10]), 0.8 ± 0.6 ng/mL; in series [1] (sheep, SLS + UG), 1.1 ± 0.6 ng/mL. The Exudate is 0.02 ± 0.005 ng/mL in series [1] (sheep, SLS + 10% E + US 1 min); 0.05 ± 0.02 ng/mL in series [1] (setting [9]); 0.11 ± 0.06 ng/mL in series [1] (setting [10]). Further, the “Relative recovery (exudate vs serum)” value in series [1] (sheep, SLS + 10% E + US 1 min) is “(2%)”; in series [1] (setting [9]), “(7%)”; in series [1] (setting [10]) it was “(14%)”. The “Recovery as % of serum levels” value in series [1] (sheep, gel mix with addition of ultrasound application) was 2%. Further, the “Blood level 1#” value in series [2] (day 1, 30 min following 1 hour training (aerobic) and oral 10% ethanol, one value per subject (1-4)) was 3 ng/mL and 7 ng/mL and 9 ng/mL and 4 ng/mL. Besides, the “Ultrasound level 1#” value in series [2] (day 1, 30 min following 1 hour training and oral 10% ethanol, forearm, 1 MHz, 0.5 W/cm^2, 1 min, one value per subject) was 2 ng/ml (2×) and 4 ng/ml and 7 ng/ml. For the same molecule, in series [2] (repeat on day 3, forearm, 1 MHz, 0.5 W/cm^2, 1 min, one value per subject), the “Ultrasound level 2*” value is 4 ng/ml (2×) and 6 ng/ml and 3 ng/ml. Further, the “Blood level 2*” value in series [2] (repeat on day 3, one value per subject) was 5 ng/mL and 10 ng/mL and 8 ng/mL and 6 ng/mL. In addition, the Collected in exudate in series [3] (flow rate 50 μl/min) fell in the range of 0.05 to 0.09 ng/mL; in series [3] (flow rate 100 μl/min) it was 0.15 to 0.20 ng/mL; in series [3] (flow rate 150 μl/min), 0.2 to 0.3 ng/mL; in series [3] (flow rate 200 μl/min), 0.21 to 0.30 ng/mL; in series [3] (flow rate 300 μl/min), 0.12 to 0.17 ng/mL. Also, the “Serum level at same time” value in series [3] (flow rate 50 μl/min) lay in the range of 1.9 to 2.5 ng/mL; in series [3] (flow rate 100 μl/min) it was 2.0 to 2.4 ng/mL; in series [3] (flow rate 150 μl/min), 1.9 to 2.6 ng/mL; in series [3] (flow rate 200 μl/min), 2.0 to 3.01 ng/mL; in series [3] (flow rate 300 μl/min), 1.9 to 2.8 ng/mL. Besides, the “Sonified off membrane*” value was 0.1 to 0.2 ng/mL in series [3] (flow rate 50 μl/min); 0.05 to 0.07 ng/mL in series [3] (flow rate 100 μl/min); 0.01 to 0.02 ng/mL in series [3] (flow rate 150 μl/min); 0.01 to 0.02 ng/mL in series [3] (flow rate 200 μl/min); 0.08 to 0.12 ng/mL in series [3] (flow rate 300 μl/min).
With `C[C@]12CCC(=O)C=C1CC[C@@H]1[C@@H]2[C@@H](O)C[C@@]2(C)[C@H]1CC[C@]2(O)C(=O)CO` [Cortisol, cortisol], the Serum is 19.6 ± 5.1 ng/L in series [4] (10 min Exercise); 27.8 ± 4.6 ng/L in series [4] (20 min Exercise); 39.3 ± 7.4 ng/L in series [4] (30 min Exercise); 18.3 ± 4.9 ng/L in series [4] (Postexercise); 11.9 ± 4.7 ng/L in series [4] (Preexercise); 29.5 ± 9.2 ng/L in series [7] (0 min Exercise). For the same molecule, the Serum stood at 7.08 ± 11.5 ng/L in series [7] (10 min Exercise); 91.3 ± 19.7 ng/L in series [7] (20 min Exercise); 115.7 ± 15.8 ng/L in series [7] (30 min Exercise); 109.4 ± 13.1 ng/L in series [7] (40 min Exercise); 49.6 ± 11.3 ng/L in series [7] (Postexercise); 22.7 ± 8.1 ng/L in series [7] (Preexercise). Also, the Saliva in series [4] (10 min Exercise) was 1.51 ± 0.97 ng/L; in series [4] (20 min Exercise), 2.35 ± 2.19 ng/L; in series [4] (30 min Exercise) it was 2.44 ± 1.76 ng/L; in series [4] (Postexercise), 1.34 ± 1.81 ng/L; in series [4] (Preexercise), 1.07 ± 1.03 ng/L; in series [7] (0 min Exercise), 2.79 ± 1.13 ng/L. The Saliva worked out at 8.01 ± 2.86 ng/L in series [7] (10 min Exercise); 8.75 ± 4.31 ng/L in series [7] (20 min Exercise); 10.04 ± 3.11 ng/L in series [7] (30 min Exercise); 9.19 ± 3.76 ng/L in series [7] (40 min Exercise); 4.02 ± 1.95 ng/L in series [7] (Postexercise); 2.25 ± 1.04 ng/L in series [7] (Preexercise). Besides, the Exudate in series [4] (10 min Exercise) was determined as 2.91 ± 0.83 ng/L; in series [4] (20 min Exercise) it was 3.92 ± 1.01 ng/L; in series [4] (Postexercise), 2.71 ± 0.55 ng/L; in series [4] (Preexercise) it was 1.71 ± 0.85 ng/L. Moreover, in series [5], the “Cortisol US” value was 32.1 ng/mL and 37.4 ng/mL and 30.5 ng/mL and 39.7 ng/mL and 29.2 ng/mL and 36.4 ng/mL and 31.3 ng/mL and 45.9 ng/mL. The Salivary value in series [6] (Day 14) worked out at 1.1 ± 0.9 ng/mL; in series [6] (first day), 6.4 ± 1.2 ng/mL. Besides, the “Recovery as % of serum levels” value in series [1] (in vivo) came out at 5%.

B1: Procalcitonin: measure of bacterial sepsis (protein, UniProt P01258 26-141, looked up)
pro-form: APFRSALESSPADPATLSEDEARLLLAALVQDYVQMKASELEQEQEREGSSLDSPRSKRCGNLSTCMLGTYTQDFNKFHTFPQTAIGVGAPGKKRDMSSDLERDHRPHVSMPQNAN
modifications: pro-form
notes: measure of bacterial sepsis
In the case of B1, in series [8] (subject number 20), the Serum is 0.5 to 15 ng/mL and the Transdermal lay in the range of 0.04 to 1.7 ng/mL. In series [8] (subject number 30), the Serum was in the range of 0.1 to 0.5 ng/mL and the Transdermal is 0.02 to 0.05 ng/mL.

The values above are taken from patent US20040162467A1, “Non-invasive transudate extraction” (priority 2001, published 2004).
